#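 Assay format: 96-well plates, 48-hour exposure. GI50: concentration for 50% inhibition of growth. At the TGI there is no net growth.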
# What was measured:
# Experiment in all cases: growth of human tumour cells (NCI), 48 h
# [1] = test system: ACHN renal
# [2] = test system: HOP-62 NSCLC
# [3] = test system: HS 578T breast
# [4] = test system: MCF7 breast
# [5] = test system: NCI-H522 lung
# [6] = test system: RPMI-8226 leukemia
# [7] = test system: SF-268 CNS
# [8] = test system: SF-295 CNS
# [9] = test system: SN12C renal
# [10] = test system: UACC-62 melanoma
SMILES,GI50 [1],TGI [1],GI50 [2],TGI [2],GI50 [3],TGI [3],GI50 [4],TGI [4],GI50 [5],TGI [5],GI50 [6],TGI [6],GI50 [7],TGI [7],GI50 [8],TGI [8],GI50 [9],TGI [9],GI50 [10],TGI [10]
COc1cc(Cl)cc(-c2nn(C(=O)NCCN3CCOCC3)cc2-c2ccncc2)c1,5.52 µM,90.2 µM,6.03 µM,63.6 µM,6.38 µM,41 µM,3.54 µM,> 100 µM,3.38 µM,> 100 µM,7.38 µM,> 100 µM,6.69 µM,> 100 µM,2.75 µM,13.5 µM,10 µM,> 100 µM,3.72 µM,20.4 µM
Cc1ccc(S(=O)(=O)N2CCSCCSCCSCCSCC2)cc1,–,> 100 µM,–,> 57 µM,–,> 53.1 µM,–,> 100 µM,–,> 69.8 µM,–,> 100 µM,–,> 75.8 µM,–,39.3 µM,–,> 96.8 µM,–,38.1 µM
O=C(Cn1ccc(=O)[nH]c1=O)Nc1ccc(C(=O)O)c(O)c1,–,> 100 µM,–,> 100 µM,–,> 100 µM,–,> 100 µM,–,> 100 µM,–,> 100 µM,–,> 100 µM,–,> 100 µM,–,> 100 µM,–,> 100 µM
Cc1ccc(/C=C2\CN(C(=O)OC(C)(C)C)C/C(=C\c3ccc(C)cc3)C2=O)cc1,1.06 µM,> 100 µM,–,> 100 µM,0.0562 µM,3.45 µM,0.205 µM,> 100 µM,0.159 µM,> 100 µM,0.329 µM,–,0.34 µM,> 100 µM,0.0685 µM,> 100 µM,0.393 µM,> 100 µM,0.0788 µM,> 100 µM
COc1ccc(C(=O)/C=C/c2ccc(/C=C/c3cc(OC)c(OC)c(OC)c3)cc2)cc1,11.6 µM,> 100 µM,12.8 µM,63.8 µM,9.11 µM,> 100 µM,2.18 µM,36.6 µM,3.3 µM,30.7 µM,2.57 µM,8.54 µM,6.08 µM,88.3 µM,9.01 µM,> 100 µM,9.61 µM,> 100 µM,7.13 µM,> 100 µM
COc1ccc(-c2ccc(/C=N/n3c(COc4ccc(Cl)cc4Cl)n[nH]c3=S)o2)c([N+](=O)[O-])c1,45.3 µM,> 100 µM,19.8 µM,35.7 µM,40.8 µM,> 100 µM,15.9 µM,41.7 µM,29.7 µM,> 100 µM,11.7 µM,43.7 µM,23.1 µM,67.1 µM,18 µM,36.5 µM,24.2 µM,58.4 µM,34.7 µM,> 100 µM
O=C(CC(=O)CC(O)(C(F)(F)F)C(F)(F)F)CC(O)(C(F)(F)F)C(F)(F)F,–,> 10 µM,–,> 10 µM,–,> 10 µM,–,> 10 µM,–,> 10 µM,–,> 10 µM,–,> 10 µM,–,> 10 µM,–,> 10 µM,–,> 10 µM
Cc1ccc2c(ccc3c[n+]4c5ccccc5ccc4n32)c1,4.12 µM,> 100 µM,1.28 µM,12.6 µM,0.959 µM,4.71 µM,2.07 µM,8.49 µM,1.09 µM,3.8 µM,2.72 µM,18.8 µM,0.39 µM,2.13 µM,1.56 µM,6.91 µM,0.297 µM,2.5 µM,0.795 µM,2.32 µM
CC(C)(C)C#CC1=C(Br)C(=O)OC1,0.266 µM,–,0.454 µM,1.48 µM,> 26.9 µM,> 78.2 µM,3.99 µM,25.9 µM,7.7 µM,22.5 µM,0.597 µM,3.71 µM,12.7 µM,33.3 µM,6.9 µM,18.2 µM,6.26 µM,17.7 µM,13.2 µM,> 45.5 µM
CCN1C(=O)N(CC)C2C1NN=c1s/c(=C\c3cccnc3)c(=O)n12 (configuration not stated),0.694 µM,> 100 µM,0.628 µM,> 100 µM,0.44 µM,> 100 µM,0.333 µM,> 100 µM,0.474 µM,> 100 µM,0.41 µM,> 100 µM,21.8 µM,> 100 µM,0.353 µM,> 100 µM,0.616 µM,> 100 µM,0.417 µM,> 100 µM
CNC(=O)n1ccc2cc(Oc3ccnc(NC(=O)c4ccc(C5CCN(CCO)CC5)cc4)c3)c(OCCOC)cc21,3.16 µM,10.7 µM,4.56 µM,18.6 µM,1.84 µM,7.37 µM,4.33 µM,19.5 µM,3.09 µM,11 µM,2 µM,6.58 µM,10.2 µM,23 µM,8.54 µM,21 µM,13.5 µM,27.9 µM,5.23 µM,17.5 µM
COc1c(CCC[P+](c2ccccc2)(c2ccccc2)c2ccccc2)cc2c(c1OC)OCO2,5.34 µM,29.5 µM,3.42 µM,14.5 µM,1.72 µM,13.4 µM,1.12 µM,10.7 µM,1.75 µM,10.8 µM,0.233 µM,1.72 µM,2.04 µM,13.1 µM,2.62 µM,8.38 µM,2.42 µM,10.4 µM,0.569 µM,5.53 µM
CN(C)S(=O)(=O)c1ccc(NC(=O)COC(=O)c2ccc(S(=O)(=O)N3CCCCC3)cc2)cc1,> 100 µM,> 100 µM,> 100 µM,> 100 µM,> 100 µM,> 100 µM,> 100 µM,> 100 µM,> 100 µM,> 100 µM,> 100 µM,> 100 µM,> 100 µM,> 100 µM,> 100 µM,> 100 µM,> 100 µM,> 100 µM,> 100 µM,> 100 µM

# Reference: PubChem BioAssay (NCI)
